The text below walks through data of PubChem BioAssay (NCI).

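Test compounds were applied to cells in 96-well plates for 48 hours at 5 doses. TGI marks complete inhibition of growth.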 A value given as a limit tells only on which side of the number the result lay.

Some test systems named below: BT-549 breast; HCT-116 colon; ACHN renal; HCT-15 colon; DU-145 prostate; SK-OV-3 ovarian; A498 renal; SK-MEL-28 melanoma; K-562 leukemia; MDA-N; MALME-3M melanoma; MDA-MB-435; T-47D breast; MDA-MB-231 breast; SR leukemia; DMS 273 small cell lung; SNB-78 CNS; NCI-H226 lung; M19-MEL melanoma; XF 498 CNS.
What all share (assay): NCI anticancer screen, dose series, 48 h

In the case of `O=C1CCc2cc3c(cc21)CC1(Cc2cc4c(cc2C1)CCCC4)C3`, the TGI in the assay with BT-549 breast, in the assay with HCT-116 colon, in the assay on ACHN renal, in the assay with HCT-15 colon, with DU-145 prostate and with SK-OV-3 ovarian was more than 100 µM in each case. In addition, the TGI in the assay with A498 renal is more than 100 µM; in the assay with SK-MEL-28 melanoma, more than 100 µM; in the assay on K-562 leukemia it was more than 100 µM; in the assay on MDA-N it was 39.4 µM; in the assay with MALME-3M melanoma, more than 100 µM; in the assay with MDA-MB-435 it was 51 µM. Further, the TGI in the assay on T-47D breast was more than 100 µM; with MDA-MB-231 breast it was more than 100 µM; in the assay with SR leukemia, 47.7 µM.

On to `CCOC(=O)C1=NN(c2ccccc2)C2=CC(C)=NN(C)C(=S)N21`, for which the TGI in the assay with BT-549 breast, in the assay with HCT-116 colon, with ACHN renal, in the assay on HCT-15 colon, in the assay on DU-145 prostate and with SK-OV-3 ovarian was more than 100 µM each time. Moreover, the TGI in the assay on SK-MEL-28 melanoma, with K-562 leukemia, with MDA-N, in the assay on MDA-MB-435, in the assay on T-47D breast and with MDA-MB-231 breast was more than 100 µM in each case. The molecule also gave a TGI with SR leukemia of more than 100 µM.

`CC(=O)c1cccc(NC(=O)C(=O)C(C(=O)c2ccccc2F)C2OC(=O)c3ccccc32)c1` (stereo unspecified): the TGI in the assay on DMS 273 small cell lung was more than 100 µM; in the assay with HCT-116 colon, 88.6 µM; in the assay on SNB-78 CNS, more than 100 µM; in the assay on NCI-H226 lung it was 67.3 µM; in the assay on ACHN renal, more than 100 µM; with HCT-15 colon it was more than 100 µM. The TGI in the assay on M19-MEL melanoma, with SK-OV-3 ovarian, with A498 renal, in the assay with SK-MEL-28 melanoma, in the assay on K-562 leukemia and in the assay with XF 498 CNS was more than 100 µM each time. In the assay with SR leukemia, this molecule had a TGI of 54.9 µM.

As for `CC[C@](C)(O)C(=O)O[C@H]1C(=O)O[C@@H]2C[C@H]3C(C)=C[C@H](O)[C@@H](O)[C@]3(C)[C@H]3[C@@]4(O)OC[C@]32[C@@H]1[C@@H](C)[C@H]4O`, the TGI in the assay on DMS 273 small cell lung is 127 µM; with HCT-116 colon it was 89.2 µM; in the assay on SNB-78 CNS, 138 µM; in the assay with NCI-H226 lung, 81.2 µM; in the assay on HCT-15 colon, 221 µM; with M19-MEL melanoma, 45.5 µM. The TGI in the assay on SK-OV-3 ovarian came out at 263 µM; in the assay on A498 renal, 71.5 µM; with SK-MEL-28 melanoma, 123 µM; with K-562 leukemia, 48.8 µM; in the assay with XF 498 CNS, 66.5 µM; in the assay on MALME-3M melanoma, 34.1 µM.

In the case of `CCOC(=O)/C=C/c1c[nH]c(C(=O)OCC)c1`, the TGI in the assay on DMS 273 small cell lung, in the assay with HCT-116 colon, in the assay on SNB-78 CNS, in the assay with NCI-H226 lung, in the assay with HCT-15 colon and in the assay with M19-MEL melanoma was more than 100 µM each time. Further, the TGI with SK-OV-3 ovarian, with A498 renal, with SK-MEL-28 melanoma, in the assay with K-562 leukemia, in the assay on XF 498 CNS and in the assay on MALME-3M melanoma was more than 100 µM in each case.

Take `CN(C)CCCNc1ccc2nnn3c4ccc(OC(=O)c5ccc([N+](=O)[O-])cc5)cc4c(=O)c1c23`: the TGI was found to be 35.8 µM in the assay on BT-549 breast; 32.7 µM with HCT-116 colon; 14.1 µM in the assay on ACHN renal; 24.1 µM in the assay on HCT-15 colon; 18.3 µM in the assay with DU-145 prostate; 26.7 µM in the assay with SK-OV-3 ovarian. Moreover, the TGI with A498 renal amounted to 49.1 µM; in the assay with SK-MEL-28 melanoma, 26.6 µM; in the assay on K-562 leukemia, 18.9 µM; in the assay on MDA-N it was 26 µM; with MALME-3M melanoma it was 27.2 µM; in the assay with MDA-MB-435 it was 20.2 µM. The TGI in the assay on T-47D breast was 88.5 µM; in the assay with MDA-MB-231 breast, 23.3 µM; with SR leukemia, 11.5 µM.

With `CC1CC(C)(O)CC(C(O)CC2CC(=O)NC(=O)C2)C1=O` (stereo unspecified), the TGI with HCT-116 colon turned out to be 0.704 µM; in the assay with NCI-H226 lung, 0.764 µM; in the assay with ACHN renal it was 1.17 µM; with HCT-15 colon it was 2.94 µM; in the assay with DU-145 prostate it was 1.85 µM; with SK-OV-3 ovarian it was 2.45 µM. Moreover, the TGI in the assay with A498 renal turned out to be 3.51 µM; with SK-MEL-28 melanoma it was 3.55 µM; in the assay with K-562 leukemia, 0.706 µM; with MDA-N it was 1.16 µM; in the assay on MALME-3M melanoma, 6.44 µM; with MDA-MB-435, 2.1 µM. Moreover, the TGI with T-47D breast came out at 3.18 µM; in the assay on MDA-MB-231 breast, 0.0651 µM.

With `Nc1nc(Cl)cc(NCCCCCCCCCCCCNc2cc(Cl)nc(N)n2)n1`, the TGI is 58 µM with DMS 273 small cell lung; more than 100 µM in the assay with HCT-116 colon; 66.9 µM with NCI-H226 lung; more than 100 µM in the assay on HCT-15 colon; more than 100 µM in the assay with M19-MEL melanoma; more than 100 µM in the assay on SK-OV-3 ovarian. For the same molecule, the TGI in the assay on A498 renal is more than 100 µM; with SK-MEL-28 melanoma, 30 µM; in the assay with K-562 leukemia, more than 100 µM; in the assay on XF 498 CNS it was 26.4 µM; in the assay on MALME-3M melanoma, more than 100 µM; with SR leukemia, more than 100 µM.
